One assay has as its target T1, deltaF508 CFTR (Homo sapiens, UniProt P13569, DEL508-508).
T1 construct: host or cells: CFBE (cystic fibrosis bronchial-derived cell line)
The assay is described as follows: CFBE potentiator assay (FLIPR membrane potential, temperature-rescued). The conditions noted are these: CFBE cells, 3 micromolar forskolin; read-out: CFBE potentiator assay pot. pEC50 (converted). Format: cell-based. The protocol: Cell culture: HEK293 cells stably expressing human deltaF508 CFTR were cultured in DMEM/F12 medium containing 10% fetal bovine serum (FBS) and 600 micrograms/mL geneticin. For functional CFTR assays, cryo-preserved cells were quickly thawed in a 37° C. water bath, diluted with warm DMEM/F12 medium containing 10% FBS, spun down at 300×g for 5 mins and resuspended in the same medium at a density of 300,000 cells/mL. A cystic fibrosis bronchial-derived cell line complemented with a 4.7 Kb deltaF508 CFTR cDNA (“CFBE”) was obtained from Dr. Dieter Gruenert under a license from UCSF. These cells were cultured in MEM with Earle's salt (Invitrogen)supplemented with 10% fetal bovine serum (Invitrogen) and 300 micrograms/mL hygromycin (Millipore). CFBE cells were grown on flasks coated with a fibronectin solution containing LHC basal medium (Invitrogen), 0.001% bovine serum albumin (Sigma), 1% v/v Vitrogen 100 (BD Bioscience) and 10 micrograms/mL human fibronectin (Life Technologies). All cells were grown at 37° C. and 5% CO2 unless specified for an assay.
CFBE potentiator assay: CFBE cells were dissociated for 10 mins at 37° C. with Hank's balanced salt solution containing 0.6 mM EDTA and 10% of a 0.25% Trypsin/EDTA solution (all from Life Technologies). An equal amount of CFBE cell growth medium (see Cell culture above) was then added to the flasks and cells were spun at 500×g for 10 mins. Cells were re-suspended in cell medium at a density of 150,000 cells/mL and plated in 384-well black, poly-D-Lysine-coated plates (7,500 cells/well). Cells were then grown at 37° C., 5% CO2 for a total of 6-8 days to allow differentiation. Cell medium was changed every 2-3 days. The day before each experiment, culture medium was removed, fresh culture medium was added and cells were placed at 30° C., 5% CO2 for 18-24 hrs to allow temperature rescue of delF508 CFTR. Potentiation activity was measured as described above for HEK cells except cells were stained for exactly 60 mins, compounds (or DMSO for negative control) were mixed with assay buffer containing 3 micromolar forskolin, and the positive control wells had assay buffer containing 3 micromolar forskolin and 9 micromolar VX-770 (Selleckchem).
Data analysis: CFTR activity was defined as maximum fluorescence signal after addition minus baseline fluorescence. All data were normalized to each plate's positive and negative controls and expressed as percent responses. Concentration response curves were analyzed by fitting the data to a 4-parameter logistic equation in Microcal's Origin or IDBS' Activity Base software.

The target of a further assay is Wt-CFTR (Homo sapiens, UniProt P13569). The assay is described as follows: Calu-3 CSE experiments, FLiPR assay of CFTR channel activity. Type of assay: cell-based. On the set-up: this airway epithelial cell line endogenously expresses this channel; endogenous in cells; host or cells: Calu-3. The protocol:
Addition of CFTR-inhibitor indicated with grey arrow. Superimposed, we show the effect of acute co-application of VX-770 (open squares) or SK-POT (open triangles) with forskolin. […] Only SK-POT rescued CFTR channel function in the presence of cigarette smoke extract.
Calu-3 cells were cultured using EMEM (Wisent) supplemented with FBS at 20% (v/v) and 1× Penicillin/Streptomycin (Wisent). Calu-3 cells were seeded on clear-bottom, black-walled 96 well plates (Costar, Corning) at a density of 10,000 cells/well and cultured for 2 days post-confluence. Cells then received the chronic treatment of toxin and potentiator. The toxin treatment consisted of either cigarette smoke extract (CSE) prepared in 100% DMSO (University of Alabama at Birmingham), dissolved at a concentration of 2% (v/v) in Calu-3 medium, with an equivalent concentration of DMSO alone serving as the toxin control. The chronic drug treatment was co-applied with the toxin, which included either VX-770 or Compound 11 (both prepared in 100% DMSO) dissolved in Calu-3 medium at a final concentration of 1 μm. VX-770 (Vertex) and Compound 11 solutions were prepared from 1 mM stocks. The control for the drug treatment was the vehicle, DMSO at an equivalent volume. Combining the two toxin treatments and three drug treatments, a total of six treatments were applied chronically to 4 wells per condition, for a total of 24 wells receiving chronic treatment.
Cells were cultured for an additional 24 hours after chronic treatment application, after which cells were incubated with FLiPR assay buffer. The FLiPR assay buffer consisted of blue FLiPR dye (Molecular Devices) dissolved at a concentration of 0.5 mg/mL in chloride-free buffer (150 mM NMDG, 150 mM gluconolactone, 3 mM potassium gluconate, 300 mOsm and pH 7.38). Buffer was incubated with cells at 37 degrees and 5% CO2 for 35 minutes. CFTR function was assessed by measuring changes in fluorescence activity after acute CFTR channel activation by addition of cAMP agonist forskolin dissolved in chloride-free buffer to a final concentration 1 μm, using the SpectraMax i3x multimodal plate reader. Fluorescence readings (excitation 530 nm; emission 560 nm) for each well were taken at 30-second intervals for 5 minutes (baseline) or 10 minutes (activation). CFTR activity was then terminated by addition of CFTR-inhibitor 172 dissolved in chloride-free buffer to a concentration of 10 μm, to further verify the specificity of the response to CFTR activity. Fluorescence changes were recorded at 30-second intervals for another 10 minutes. In analysis, all fluorescence values were normalized per well to the final reading prior to the addition of forskolin and expressed as a percentage of this reading.

The results in this text go back to patent publication US20260055065A1, “PYRIDAZINONE COMPOUNDS WHICH MODULATE MUTANT PROTEINS FOR TREATING RESPIRATORY DISEASES” (The Hospital for Sick Children, priority 2022, published 2026).

Chain of Wt-CFTR (P13569 whole entry): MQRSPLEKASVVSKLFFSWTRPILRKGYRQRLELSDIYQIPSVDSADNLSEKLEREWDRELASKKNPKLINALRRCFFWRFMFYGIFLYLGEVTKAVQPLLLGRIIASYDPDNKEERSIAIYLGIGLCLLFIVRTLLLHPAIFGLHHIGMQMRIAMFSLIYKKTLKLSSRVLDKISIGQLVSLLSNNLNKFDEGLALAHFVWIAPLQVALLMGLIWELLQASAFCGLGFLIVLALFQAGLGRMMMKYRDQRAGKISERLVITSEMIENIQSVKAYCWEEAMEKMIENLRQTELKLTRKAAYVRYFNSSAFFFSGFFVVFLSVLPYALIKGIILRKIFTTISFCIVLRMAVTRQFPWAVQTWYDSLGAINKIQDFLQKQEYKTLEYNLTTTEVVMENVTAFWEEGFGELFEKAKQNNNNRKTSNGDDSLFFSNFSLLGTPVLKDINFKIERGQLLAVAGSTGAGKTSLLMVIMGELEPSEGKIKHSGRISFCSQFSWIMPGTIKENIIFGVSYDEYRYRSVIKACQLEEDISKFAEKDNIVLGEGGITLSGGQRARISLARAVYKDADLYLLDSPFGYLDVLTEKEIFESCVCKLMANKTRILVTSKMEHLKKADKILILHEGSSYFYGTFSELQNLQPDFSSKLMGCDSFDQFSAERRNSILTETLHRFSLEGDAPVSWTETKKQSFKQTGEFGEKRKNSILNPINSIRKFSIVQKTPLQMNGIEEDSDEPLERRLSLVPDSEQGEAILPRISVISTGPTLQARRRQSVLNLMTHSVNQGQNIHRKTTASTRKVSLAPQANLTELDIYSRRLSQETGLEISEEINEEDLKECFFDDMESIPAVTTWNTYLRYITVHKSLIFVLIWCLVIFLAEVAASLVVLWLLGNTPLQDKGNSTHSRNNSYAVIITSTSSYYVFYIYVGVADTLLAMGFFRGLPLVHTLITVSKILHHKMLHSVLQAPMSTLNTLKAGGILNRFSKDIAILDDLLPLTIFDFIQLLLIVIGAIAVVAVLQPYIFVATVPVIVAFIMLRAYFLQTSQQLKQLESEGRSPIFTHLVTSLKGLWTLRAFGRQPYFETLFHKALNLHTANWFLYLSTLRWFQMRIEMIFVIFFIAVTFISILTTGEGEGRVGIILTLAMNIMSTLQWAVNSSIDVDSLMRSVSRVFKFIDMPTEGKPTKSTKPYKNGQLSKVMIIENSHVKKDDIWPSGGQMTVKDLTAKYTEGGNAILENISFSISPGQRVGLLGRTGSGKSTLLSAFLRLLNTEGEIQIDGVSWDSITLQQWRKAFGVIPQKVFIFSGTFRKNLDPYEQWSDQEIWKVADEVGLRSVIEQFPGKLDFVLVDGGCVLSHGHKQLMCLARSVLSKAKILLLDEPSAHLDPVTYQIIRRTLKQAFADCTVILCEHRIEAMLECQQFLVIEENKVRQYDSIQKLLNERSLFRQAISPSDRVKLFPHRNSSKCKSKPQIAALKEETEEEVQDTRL
T1 sequence (P13569 with tags, fused parts or gaps DEL508-508): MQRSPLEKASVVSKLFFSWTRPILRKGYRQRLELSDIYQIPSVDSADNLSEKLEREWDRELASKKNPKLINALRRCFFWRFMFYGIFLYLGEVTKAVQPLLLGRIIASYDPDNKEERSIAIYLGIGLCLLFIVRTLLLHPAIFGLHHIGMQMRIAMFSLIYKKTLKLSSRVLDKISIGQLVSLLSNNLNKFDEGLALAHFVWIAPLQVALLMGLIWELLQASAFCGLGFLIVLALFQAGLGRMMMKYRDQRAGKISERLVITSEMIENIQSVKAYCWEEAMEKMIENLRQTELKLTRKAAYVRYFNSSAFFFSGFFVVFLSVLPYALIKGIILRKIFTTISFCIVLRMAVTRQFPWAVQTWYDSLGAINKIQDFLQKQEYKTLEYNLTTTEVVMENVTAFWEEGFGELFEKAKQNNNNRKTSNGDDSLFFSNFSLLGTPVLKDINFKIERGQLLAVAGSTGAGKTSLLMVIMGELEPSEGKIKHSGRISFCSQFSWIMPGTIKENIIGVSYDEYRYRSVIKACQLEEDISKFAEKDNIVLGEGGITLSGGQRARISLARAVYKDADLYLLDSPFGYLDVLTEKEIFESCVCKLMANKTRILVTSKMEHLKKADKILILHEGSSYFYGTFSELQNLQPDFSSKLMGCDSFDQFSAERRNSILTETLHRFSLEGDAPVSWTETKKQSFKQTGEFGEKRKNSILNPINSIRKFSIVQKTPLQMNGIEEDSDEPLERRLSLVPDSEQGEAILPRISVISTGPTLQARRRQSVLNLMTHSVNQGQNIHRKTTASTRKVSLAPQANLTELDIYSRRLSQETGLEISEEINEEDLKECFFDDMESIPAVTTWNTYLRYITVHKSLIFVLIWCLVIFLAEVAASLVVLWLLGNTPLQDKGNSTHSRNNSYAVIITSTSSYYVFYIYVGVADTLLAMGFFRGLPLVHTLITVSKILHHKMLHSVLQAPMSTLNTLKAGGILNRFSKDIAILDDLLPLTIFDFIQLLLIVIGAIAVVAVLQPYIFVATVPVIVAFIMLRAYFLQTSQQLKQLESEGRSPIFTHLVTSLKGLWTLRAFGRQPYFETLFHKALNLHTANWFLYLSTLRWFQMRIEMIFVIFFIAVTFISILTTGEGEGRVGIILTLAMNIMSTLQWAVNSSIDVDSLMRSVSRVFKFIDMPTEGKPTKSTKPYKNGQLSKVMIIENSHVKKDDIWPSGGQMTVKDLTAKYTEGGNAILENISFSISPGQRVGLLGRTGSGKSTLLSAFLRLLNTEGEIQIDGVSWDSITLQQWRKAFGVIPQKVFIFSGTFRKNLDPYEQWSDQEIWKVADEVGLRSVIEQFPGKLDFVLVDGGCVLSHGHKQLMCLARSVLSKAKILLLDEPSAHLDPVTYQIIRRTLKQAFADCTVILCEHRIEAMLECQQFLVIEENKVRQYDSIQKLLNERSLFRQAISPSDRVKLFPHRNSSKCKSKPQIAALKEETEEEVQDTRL

With `CC(C)(C)c1ccc(-n2nc(-c3ccc(F)cc3)c(N3CCCCC3)c(N)c2=O)cc1O` [Compound 11, 4-amino-2-(4-(tert-butyl)-3-hydroxyphenyl)-6-(4-fluorophenyl)-5-(piperidin-1-yl)pyridazin-3(2H)-one], the EC50 on deltaF508 CFTR was 0.01 µM. On Wt-CFTR (Calu-3, CSE 2%, compounds 1 uM), the “forskolin-activated CFTR channel activity after CSE exposure” value is “significant increase in forskolin-activated CFTR channel activity”. Further, the EC90 (as a rule, the concentration at which the effect reaches the 90% level) on Wt-CFTR (Calu-3, CFTR channel potentiation, read-out: approximate EC90) is ~1 µM.
